From patent US20120157452A1, “1H-PYRAZOLO[3,4-B] PYRIDINE COMPOUNDS FOR INHIBITING RAF KINASE” (GENENTECH, INC., priority 2009, published 2012)

Target: T1, V600E full-length B-Raf (Homo sapiens, UniProt P15056, V600E)
T1 construct: made in house; host or cells: Sf9 insect cells (baculovirus)
Assay: B-Raf IC50 assay: incorporation of radio labeled phosphate from [γ-33P]ATP into FSBA-modified wild-type MEK
Format: biochemical
Description: Determining the activity of Raf in the sample is possible by a number of direct and indirect detection methods (US 2004/0082014). Activity of human recombinant B-Raf protein may be assessed in vitro by assay of the incorporation of radio labeled phosphate to recombinant MAP kinase (MEK), a known physiologic substrate of B-Raf, according to US 2004/0127496 and WO 03/022840. The activity/inhibition of V600E full-length B-Raf was estimated by measuring the incorporation of radio labeled phosphate from [γ-^33]ATP into FSBA-modified wild-type MEK (see Biological Example 1).
Activity of human recombinant B-Raf protein may be assessed in vitro by assay of the incorporation of radio labeled phosphate to recombinant MAP kinase (MEK), a known physiologic substrate of B-Raf, according to US 2004/0127496 and WO 03/022840. Catalytically active human recombinant B-Raf protein is obtained by purification from sf9 insect cells infected with a human B-Raf recombinant baculovirus expression vector.
The activity/inhibition of V600E full-length B-Raf was estimated by measuring the incorporation of radio labeled phosphate from [γ-^33]ATP into FSBA-modified wild-type MEK. The 30-μL, assay mixtures contained 25 mM Na Pipes, pH 7.2, 100 mM KCl, 10 mM MgCl2, 5 mM β-glycerophosphate, 100 μM Na Vanadate, 4 μM ATP, 500 nCi [γ-^33P]ATP, 1 μM FSBA-MEK and 20 nM V600E full-length B-Raf. Incubations were carried out at 22° C. in a Costar 3365 plate (Corning). Prior to the assay, the B-Raf and FSBA-MEK were preincubated together in assay buffer at 1.5× (20 μL of 30 nM and 1.5 μM, respectively) for 15 minutes, and the assay was initiated by the addition of 10 μL of […]. Following the 60-minute incubation, the assay mixtures were quenched by the addition of 100 μL of 25% TCA, the plate was mixed on a rotary shaker for 1 minute, and the product was captured on a Perkin-Elmer GF/B filter plate using a Tomtec Mach III Harvester. After sealing the bottom of the plate, 35 μL of Bio-Safe II (Research Products International) scintillation cocktail were added to each well and the plate was top-sealed and counted in a Topcount NXT (Packard).

[1] = 4 μM ATP, 60-minute incubation, representative data of multiple tests

T1 sequence (P15056 whole entry V600E): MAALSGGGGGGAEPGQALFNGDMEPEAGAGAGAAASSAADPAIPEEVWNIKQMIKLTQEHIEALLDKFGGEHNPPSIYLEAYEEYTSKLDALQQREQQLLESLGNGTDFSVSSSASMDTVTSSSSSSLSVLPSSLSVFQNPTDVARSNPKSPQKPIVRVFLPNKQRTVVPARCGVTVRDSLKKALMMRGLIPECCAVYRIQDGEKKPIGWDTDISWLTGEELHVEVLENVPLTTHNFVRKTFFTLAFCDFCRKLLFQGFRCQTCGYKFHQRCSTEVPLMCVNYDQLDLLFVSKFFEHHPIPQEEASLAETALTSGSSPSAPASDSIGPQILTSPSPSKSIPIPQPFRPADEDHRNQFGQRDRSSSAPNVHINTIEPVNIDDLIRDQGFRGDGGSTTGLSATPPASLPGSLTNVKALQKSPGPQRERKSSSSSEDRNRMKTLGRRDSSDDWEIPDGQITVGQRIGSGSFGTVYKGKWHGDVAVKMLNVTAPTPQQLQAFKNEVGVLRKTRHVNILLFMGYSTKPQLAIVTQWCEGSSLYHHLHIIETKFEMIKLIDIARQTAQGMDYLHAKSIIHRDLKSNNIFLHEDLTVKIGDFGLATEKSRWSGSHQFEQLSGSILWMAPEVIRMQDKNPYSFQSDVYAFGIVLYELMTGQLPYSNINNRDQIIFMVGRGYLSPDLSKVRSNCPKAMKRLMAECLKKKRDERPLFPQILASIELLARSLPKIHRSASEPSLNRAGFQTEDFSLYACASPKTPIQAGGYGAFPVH

Row | IC50 [1] [nM] | IC50 (bound stated) [nM] | Compound
1 | 429 | < 500 | COc1n[nH]c2ncc(NC(=O)c3cccc(OCc4ccccc4)c3)cc12 [Example 1, 3-(benzyloxy)-N-(3-methoxy-1H-pyrazolo[3,4-b]pyridin-5-yl)benzamide]
2 | 55.8 | < 100 | COc1n[nH]c2ncc(NC(=O)c3cc(OCc4ccccc4)ccc3F)cc12 [Example 2, 5-(benzyloxy)-2-fluoro-N-(3-methoxy-1H-pyrazolo[3,4-b]pyridin-5-yl)benzamide]
3 | 0.44 | < 100 | COc1n[nH]c2ncc(NC(=O)c3c(Cl)ccc(OCc4ccccc4F)c3F)cc12 [Example 3, 6-chloro-2-fluoro-3-(2-fluorobenzyloxy)-N-(3-methoxy-1H-pyrazolo[3,4-b]pyridin-5-yl)benzamide]
4 | 0.62 | < 100 | COc1n[nH]c2ncc(NC(=O)c3c(Cl)ccc(OCc4ccccc4)c3F)cc12 [Example 4, 3-(benzyloxy)-6-chloro-2-fluoro-N-(3-methoxy-1H-pyrazolo[3,4-b]pyridin-5-yl)benzamide]
5 | 1.06 | < 100 | COc1n[nH]c2ncc(NC(=O)c3c(C)ccc(OCc4ccccc4)c3F)cc12 [Example 5, 3-(benzyloxy)-2-fluoro-N-(3-methoxy-1H-pyrazolo[3,4-b]pyridin-5-yl)-6-methylbenzamide]
6 | 2.52 | < 100 | CCc1n[nH]c2ncc(NC(=O)c3c(Cl)ccc(OCc4ccccc4)c3F)cc12 [Example 6, 3-(benzyloxy)-6-chloro-N-(3-ethyl-1H-pyrazolo[3,4-b]pyridin-5-yl)-2-fluorobenzamide]
7 | 4.76 | < 100 | CN(C)c1n[nH]c2ncc(NC(=O)c3c(Cl)ccc(OCc4ccccc4)c3F)cc12 [Example 7, 3-(benzyloxy)-6-chloro-N-(3-(dimethylamino)-1H-pyrazolo[3,4-b]pyridin-5-yl)-2-fluorobenzamide]
8 | 5.83 | < 100 | O=C(Nc1cnc2[nH]nc(C(F)(F)F)c2c1)c1c(Cl)ccc(OCc2ccccc2)c1F [Example 8, 3-(benzyloxy)-6-chloro-2-fluoro-N-(3-(trifluoromethyl)-1H-pyrazolo[3,4-b]pyridin-5-yl)benzamide]
9 | 1.17 | < 100 | O=C(Nc1cnc2[nH]nc(-c3ccco3)c2c1)c1c(Cl)ccc(OCc2ccccc2)c1F [Example 9, 3-(benzyloxy)-6-chloro-2-fluoro-N-(3-(furan-2-yl)-1H-pyrazolo[3,4-b]pyridin-5-yl)benzamide]
10 | 2.29 | < 100 | CC(C)c1n[nH]c2ncc(NC(=O)c3c(Cl)ccc(OCc4ccccc4)c3F)cc12 [Example 10, 3-(benzyloxy)-6-chloro-2-fluoro-N-(3-isopropyl-1H-pyrazolo[3,4-b]pyridin-5-yl)benzamide]
11 | 7.03 | < 100 | CNc1n[nH]c2ncc(NC(=O)c3c(Cl)ccc(OCc4ccccc4)c3F)cc12 [Example 11, 3-benzyloxy-6-chloro-2-fluoro-N-(3-(methylamino)-1H-pyrazolo[3,4-b]pyridin-5-yl)benzamide]
12 | 1.85 | < 100 | CSc1n[nH]c2ncc(NC(=O)c3c(Cl)ccc(OCc4ccccc4)c3F)cc12 [Example 12, 3-(benzyloxy)-6-chloro-2-fluoro-N-(3-(methylthio)-1H-pyrazolo[3,4-b]pyridin-5-yl)benzamide]
13 | 1.91 | < 100 | COCCOc1n[nH]c2ncc(NC(=O)c3c(Cl)ccc(OCc4ccccc4)c3F)cc12 [Example 13, 3-(benzyloxy)-6-chloro-2-fluoro-N-(3-(2-methoxyethoxy)-1H-pyrazolo[3,4-b]pyridin-5-yl)benzamide]
14 | 0.93 | < 100 | CCOc1n[nH]c2ncc(NC(=O)c3c(Cl)ccc(OCc4ccccc4)c3F)cc12 [Example 14, 3-(benzyloxy)-6-chloro-N-(3-ethoxy-1H-pyrazolo[3,4-b]pyridin-5-yl)-2-fluorobenzamide]
15 | 2.63 | < 100 | O=C(Nc1cnc2[nH]nc(OCCO)c2c1)c1c(Cl)ccc(OCc2ccccc2)c1F [Example 15, 3-(benzyloxy)-6-chloro-2-fluoro-N-(3-(2-hydroxyethoxy)-1H-pyrazolo[3,4-b]pyridine-5-yl)benzamide]
16 | 1.71 | < 100 | CC(C)Oc1n[nH]c2ncc(NC(=O)c3c(Cl)ccc(OCc4ccccc4)c3F)cc12 [Example 16, 3-(benzyloxy)-6-chloro-2-fluoro-N-(3-isopropoxy-1H-pyrazolo[3,4-b]pyridin-5-yl)benzamide]
17 | 11.1 | < 100 | CN(C)CCOc1n[nH]c2ncc(NC(=O)c3c(Cl)ccc(OCc4ccccc4)c3F)cc12 [Example 17, 3-(benzyloxy)-6-chloro-N-(3-(2-(dimethylamino)ethoxy)-1H-pyrazolo[3,4-b]pyridin-5-yl)-2-fluorobenzamide]
18 | 0.82 | < 100 | O=C(Nc1cnc2[nH]nc(OCCF)c2c1)c1c(Cl)ccc(OCc2ccccc2)c1F [Example 18, 3-(benzyloxy)-6-chloro-2-fluoro-N-(3-(2-fluoroethoxy)-1H-pyrazolo[3,4-b]pyridine-5-yl)benzamide]
19 | 2.04 | < 100 | COc1n[nH]c2ncc(NC(=O)c3c(Cl)ccc(OCc4ccc(C(F)(F)F)cc4)c3F)cc12 [Example 19, 6-chloro-2-fluoro-N-(3-methoxy-1H-pyrazolo[3,4-b]pyridin-5-yl)-3-(4-(trifluoromethyl)benzyloxy)benzamide]
20 | 3.48 | < 100 | CC1(c2n[nH]c3ncc(NC(=O)c4c(Cl)ccc(OCc5ccccc5)c4F)cc23)CC1 [Example 20, 3-(benzyloxy)-6-chloro-2-fluoro-N-(3-(1-methylcyclopropyl)-1H-pyrazolo[3,4-b]pyridin-5-yl)benzamide]
21 | 72.4 | < 100 | COc1n[nH]c2ncc(NC(=O)c3cccc(OCc4ccccc4)c3Cl)cc12 [Example 21, 3-(benzyloxy)-2-chloro-N-(3-methoxy-1H-pyrazolo[3,4-b]pyridin-5-yl)benzamide]
22 | 585 | – | COc1n[nH]c2ncc(NC(=O)c3cccc(OCc4ccccc4)c3C)cc12 [Example 22, 3-(benzyloxy)-N-(3-methoxy-1H-pyrazolo[3,4-b]yridine-5-yl)-2-methylbenzamide]
23 | 4 | < 100 | COc1n[nH]c2ncc(NC(=O)c3cc(OCc4ccccc4)ccc3Cl)cc12 [Example 23, 5-(benzyloxy)-2-chloro-N-(3-methoxy-1H-pyrazolo[3,4-b]pyridin-5-yl)benzamide]
24 | 64.9 | < 100 | COc1n[nH]c2ncc(NC(=O)c3cc(OCc4ccccn4)ccc3Cl)cc12 [Example 24, 2-chloro-N-(3-methoxy-1H-pyrazolo[3,4-b]pyridin-5-yl)-5-(pyridin-2-ylmethoxy)benzamide]
25 | 12.3 | < 100 | COc1n[nH]c2ncc(NC(=O)c3c(Cl)ccc(OCc4ccccc4)c3Cl)cc12 [Example 25, 3-(benzyloxy)-2,6-dichloro-N-(3-methoxy-1H-pyrazolo[3,4-b]pyridin-5-yl)benzamide]
26 | 2.41 | < 100 | COc1n[nH]c2ncc(NC(=O)c3c(F)ccc(OCc4ccccc4)c3F)cc12 [Example 26, 3-(benzyloxy)-2,6-difluoro-N-(3-methoxy-1H-pyrazolo[3,4-b]pyridin-5-yl)benzamide]
27 | 2.95 | < 100 | COc1n[nH]c2ncc(NC(=O)c3cc(OCc4ccccc4)ccc3C)cc12 [Example 27, 5-(benzyloxy)-N-(3-methoxy-1H-pyrazolo[3,4-b]pyridin-5-yl)-2-methylbenzamide]
28 | 0.84 | < 100 | COc1n[nH]c2ncc(NC(=O)c3c(Cl)ccc(OCc4cccc(F)c4)c3F)cc12 [Example 28, 6-chloro-2-fluoro-3-(3-fluorobenzyloxy)-N-(3-methoxy-1H-pyrazolo[3,4-b]pyridin-5-yl)benzamide]
29 | 0.65 | < 100 | COc1n[nH]c2ncc(NC(=O)c3c(Cl)ccc(OCc4ccc(F)cc4)c3F)cc12 [Example 29, 6-chloro-2-fluoro-3-(4-fluorobenzyloxy)-N-(3-methoxy-1H-pyrazolo[3,4-b]pyridin-5-yl)benzamide]
30 | 0.56 | < 100 | COc1n[nH]c2ncc(NC(=O)c3c(Cl)ccc(OCc4ccc(C)cc4)c3F)cc12 [Example 31, 6-chloro-2-fluoro-N-(3-methoxy-1H-pyrazolo[3,4-b]pyridin-5-yl)-3-(4-methyl-benzyloxy)benzamide]
